These are literature values, as cited in patent publication US8058304B2, “Merged ion channel modulating compounds and uses thereof” (Cardiome Pharma Corp., priority 2004, dated 2011).

This data set relates to patients with left ventricular dysfunction after recent and remote myocardial infarction. The settings on record: optically pure d-sotalol; SWORD study, Lancet 1996.

Turning to `CC(C)NC[C@@H](O)c1ccc(NS(C)(=O)=O)cc1` [d-sotalol], the “increased mortality compared to placebo” value is 65%.
